Results as given in the NIST ThermoML archive (doi:10.1016/j.fluid.2016.02.011).

Assay: refractive index (Na D-line) (dimensionless); xn = mol fraction of the nth substance listed
Conditions: 100 kPa, Liquid, minimum deviations angle

Brc1ccccc1 [bromobenzene] + CCCCCC[n+]1ccn(C)c1.O=S(=O)([N-]S(=O)(=O)C(F)(F)F)C(F)(F)F
Conditions	refractive index
282.96 K, x2 = 0.126	1.5213
282.97 K, x2 = 0.014	1.5558
282.97 K, x2 = 0.099	1.5287
283 K, x2 = 0	1.5612
283 K, x2 = 0.012	1.5566
283.05 K, x2 = 0.203	1.5043
284.39 K, x2 = 0.098	1.5279
284.4 K, x2 = 0	1.5605
284.53 K, x2 = 0.016	1.5545
284.53 K, x2 = 0.094	1.5291
284.67 K, x2 = 0.012	1.5558
284.89 K, x2 = 0.126	1.5204
285.06 K, x2 = 0.203	1.5035
285.53 K, x2 = 0.098	1.5273
285.73 K, x2 = 0.017	1.5534
285.73 K, x2 = 0.091	1.5294
285.75 K, x2 = 0	1.5598
286.57 K, x2 = 0.012	1.5548
286.96 K, x2 = 0	1.5591
286.98 K, x2 = 0.126	1.5195
287.01 K, x2 = 0.203	1.5027
287.53 K, x2 = 0.019	1.5516
287.53 K, x2 = 0.086	1.53
287.59 K, x2 = 0.098	1.5264
287.98 K, x2 = 0	1.5585
288.27 K, x2 = 0.012	1.5539
288.42 K, x2 = 0.021	1.5506
288.42 K, x2 = 0.083	1.5304
288.67 K, x2 = 0.085	1.5295
288.99 K, x2 = 0	1.558
289.12 K, x2 = 0.126	1.5186
289.13 K, x2 = 0.022	1.5497
289.13 K, x2 = 0.08	1.5307
289.18 K, x2 = 0.203	1.5018
289.79 K, x2 = 0.085	1.529
289.81 K, x2 = 0.098	1.5254
289.82 K, x2 = 0.024	1.5487
289.82 K, x2 = 0.077	1.5313
290.11 K, x2 = 0	1.5574
290.23 K, x2 = 0.012	1.5529
290.33 K, x2 = 0.026	1.5478
290.33 K, x2 = 0.074	1.5318
290.81 K, x2 = 0.085	1.5286
290.82 K, x2 = 0.027	1.547
290.82 K, x2 = 0.072	1.5324
290.87 K, x2 = 0.026	1.5473
291.09 K, x2 = 0.203	1.501
291.14 K, x2 = 0.126	1.5177
291.16 K, x2 = 0.029	1.5462
291.16 K, x2 = 0.069	1.533
291.22 K, x2 = 0	1.5568
291.34 K, x2 = 0.012	1.5524
291.44 K, x2 = 0.03	1.5456
291.44 K, x2 = 0.067	1.5336
291.49 K, x2 = 0.075	1.5311
291.54 K, x2 = 0.031	1.5453
291.54 K, x2 = 0.066	1.5338
291.64 K, x2 = 0.031	1.5451
291.64 K, x2 = 0.065	1.5341
291.71 K, x2 = 0.098	1.5245
291.74 K, x2 = 0.032	1.5448
291.74 K, x2 = 0.064	1.5343
291.83 K, x2 = 0.033	1.5445
291.83 K, x2 = 0.063	1.5346
291.91 K, x2 = 0.033	1.5442
291.91 K, x2 = 0.062	1.5349
291.98 K, x2 = 0.034	1.5439
291.98 K, x2 = 0.061	1.5351
292.03 K, x2 = 0.026	1.5467
292.04 K, x2 = 0.035	1.5436
292.04 K, x2 = 0.06	1.5354
292.08 K, x2 = 0.036	1.5433
292.08 K, x2 = 0.059	1.5356
292.14 K, x2 = 0.085	1.5279
292.15 K, x2 = 0.037	1.5428
292.15 K, x2 = 0.058	1.536
292.21 K, x2 = 0.038	1.5424
292.21 K, x2 = 0.056	1.5365
292.21 K, x2 = 0.075	1.5307
292.21 K, x2 = 0.126	1.5172
292.22 K, x2 = 0.203	1.5005
292.24 K, x2 = 0.039	1.5421
292.24 K, x2 = 0.055	1.5368
292.25 K, x2 = 0.039	1.5419
292.25 K, x2 = 0.055	1.5369
292.26 K, x2 = 0.04	1.5416
292.26 K, x2 = 0.054	1.5371
292.27 K, x2 = 0.041	1.5414
292.27 K, x2 = 0.053	1.5373
292.29 K, x2 = 0.042	1.541
292.29 K, x2 = 0.052	1.5378
292.3 K, x2 = 0.012	1.5518
292.3 K, x2 = 0.043	1.5407
292.3 K, x2 = 0.051	1.538
292.32 K, x2 = 0	1.5563
293.01 K, x2 = 0.085	1.5276
293.1 K, x2 = 0.026	1.5461
293.22 K, x2 = 0.126	1.5167
293.22 K, x2 = 0.203	1.5001
293.32 K, x2 = 0	1.5557
293.35 K, x2 = 0.041	1.5407
293.35 K, x2 = 0.06	1.5348
293.39 K, x2 = 0.012	1.5513
293.5 K, x2 = 0.075	1.5301
293.74 K, x2 = 0.098	1.5236
293.93 K, x2 = 0.085	1.5271
294.22 K, x2 = 0.026	1.5456
294.45 K, x2 = 0.041	1.5401
294.49 K, x2 = 0.06	1.5343
294.54 K, x2 = 0.075	1.5296
295.1 K, x2 = 0.085	1.5266
295.1 K, x2 = 0.098	1.523
295.32 K, x2 = 0.026	1.545
295.66 K, x2 = 0.06	1.5337
295.82 K, x2 = 0.041	1.5394
295.84 K, x2 = 0.075	1.529
296.86 K, x2 = 0.06	1.5331
297.11 K, x2 = 0.041	1.5388
297.16 K, x2 = 0.075	1.5284
297.94 K, x2 = 0.06	1.5325
298.49 K, x2 = 0.041	1.5381
298.64 K, x2 = 0.026	1.5433
298.7 K, x2 = 0.075	1.5277
299.03 K, x2 = 0.06	1.532
299.63 K, x2 = 0.041	1.5375
299.98 K, x2 = 0.06	1.5315
300.84 K, x2 = 0.041	1.5369
